These results are taken from US20090068290A1, “BIFEPRUNOX DOSES FOR TREATING SCHIZOPHRENIA” (priority 2006, published 2009).

In data set [1] the test system is adult subjects with schizophrenia. Description: CGI responder rate, Clinical Study Three. Format: in vivo, human. To be noted: LOCF. An excerpt:
CLINICAL STUDY THREE: A CGI responder is defined as a subject who is categorized as “very much improved” or “much improved” on the CGI Improvement scale. […] No notable differences were observed between the placebo group and either of the two bifeprunox dose groups.

Data set [2] has the same test system. Description: CGI responder rate, Clinical Study One. Format: in vivo, human. To be noted: 6 mg. The procedure:
(§1) There were five treatment groups in this study. […] Study medication was administered once daily. After Baseline measurements were performed, the titration phase was begun. Bifeprunox treated subjects were titrated up to 5 mg, 10 mg or 20 mg according to a standardized titration schedule (Day 1: 0.125 mg, Day 2: 0.25 mg, Day 3: 0.5 mg, Day 4: 1.0 mg, Day 5: 2.0 mg, Day 6: 5.0 mg, Day 7: 10.0 mg, Day 8: 20 mg). When the assigned dose was reached, subjects were maintained at that dose for the remainder of the six-week treatment period.
CLINICAL STUDY ONE: A CGI responder is defined as a subject who is categorized as “very much improved” or “much improved” on the CGI Improvement scale.

Data set [3] shares this test system. Nature of the data set: PANSS responder rates, Clinical Study One. Format: in vivo, human. To be noted: Risperidone 6 mg; ITT. On the procedure:
as §1

The test system is the same in data set [4]. Description: PANSS total score, Clinical Study Two (6-week, risperidone-referenced). Format: in vivo, human. The conditions noted are these: Risperidone 6 mg, LOCF, ITT. The procedure:
Treatment started with a single-blind placebo lead-in period of at least three days, followed by titration from 0.25 mg up to 30 mg/day or 40 mg/day of bifeprunox for bifeprunox-treated subjects.
Rating scale assessments were performed weekly, except for week 5, to measure the change from baseline to endpoint of the PANSS total score. Other assessments included: PANSS positive symptom subscale score, PANSS negative symptom subscale score, PANSS general pschopathology subscale score, BPRS total score, BPRS psychosis score, the CGI-S score, the CGI-I score, responder rates based on the PANSS total score, and the Calgary Depression Scale for Schizophrenia (CDSS).
Subjects who completed this study had the option to continue in the long-term. […] After completing a Single-Blind placebo lead-in period of at least three days, bifeprunox-treated subjects were titrated from 0.25 mg up to 30 mg/day or 40 mg/day according to a standardized titration scheme over an eight-day period. When the assigned dose was reached, subjects were maintained at that dose for the remainder of the six week treatment period. […] Rating scale assessments for efficacy and abnormal movement disorders were done weekly except for Week 5. Safety assessments were performed at Screening, during treatment and at the end of the study. Subject satisfaction with study medication was assessed at Week 6. Samples of blood were obtained at Weeks 2, 4, and 6 for determination of bifeprunox in plasma. Blood samples were also obtained at Screening/Baseline, Week 3, and Week 6 for clinical laboratory assessments.
Diagnosis and Main Criteria for Inclusion: Male or female subjects 18-75 years of age with schizophrenia (per DSM-IV-TR criteria). Subjects had to have a total score on the PANSS between 70 and 120; at least two of four PANSS items (conceptual disorganization, hallucinatory behavior, suspiciousness, unusual thought content) had to have a score ≧4; and the score on the CGI-S had to be at least 4.

For data set [5] the test system is unchanged. Nature of the data set: Adverse events (TEAE, SAE, special interest, discontinuation, EPS-related TEAE), Clinical Study Three. The conditions noted are these: Risperidone 6 mg. The procedure:
There were four treatment arms in this study, approximately 144 subjects per arm. […] After completing the Single-Blind Placebo Lead-in Period of at least three days, bifeprunox-treated subjects were titrated from 0.25 mg up to 20 mg/day or 30 mg/day according to a standardized titration scheme over a seven- or eight-day period, respectively. When the assigned dose was reached, subjects were maintained at that dose for the remainder of the six week treatment period. […] Subjects were hospitalized (if not already inpatients) after eligibility for study entry was verified, starting from the Screening Visit until at least 10 days after Baseline. Subjects could be hospitalized longer than 10 days if considered medically necessary by the Investigator. Rating scale assessments for efficacy and abnormal movement disorders were done weekly except for Week 5. Safety assessments were performed at Screening, during treatment and at the end of the study. Subject satisfaction with study medication was assessed at Week 6. Samples of whole blood were obtained at Weeks 2, 4, and 6 for determination of bifeprunox in plasma.
EPS were assessed using treatment-emergent adverse events such as akathisia, dyskinesia, parkinsoniam, etc. and/or formal rating scales such as SAS, BAS, and/or AIMS.

Take `Cc1cc2c(s1)Nc1ccccc1N=C2N1CCN(C)CC1` [Olanzapine, olanzapine, reference compound]: in data set [1] (15 mg, Week 6/Endpoint), the “CGI Responder No, %” value is listed as 54% and the “CGI Responder Yes, %” value came to 46%. The “CGI-I responder rate (subjects much or very much improved) at Endpoint” value in data set [1] (olanzapine 15 mg) is given as 46%.

As to `Cc1nc2n(c(=O)c1CCN1CCC(c3noc4cc(F)ccc34)CC1)CCCC2` [Risperidone, risperidone, reference compound], the “CGI Responder at Endpoint (LOCF), %” value in data set [2] is on record as 36%. In data set [3], the “PANSS Responder at Endpoint (LOCF), 20% Definition” value was 46 (40) n (%); the “PANSS Responder at Endpoint (LOCF), 25% Definition” value was 34 (29) n (%); the “PANSS Responder at Endpoint (LOCF), 30% Definition” value is 26 (22) n (%); the “PANSS Responder at Endpoint (LOCF), 35% Definition” value is 15 (13) n (%). In data set [4] (Week 1), the “Change from Baseline in PANSS Total Score, Mean (SD)” value (from here on “Change from Baseline … (SD)”) is listed as −8.7 (10.2) and the “Change from Baseline in PANSS Total Score, Median” value (“Change from Baseline … Median” below) is given as −9. Also, in data set [4] (Week 2), the “Change from Baseline … (SD)” value is −14.8 (14.2) and the “Change from Baseline … Median” value is −15. Besides, in data set [4] (Week 3), the “Change from Baseline … Median” value was −18. Besides, in data set [4] (Week 4), the “Change from Baseline … (SD)” value was −19.2 (17.0) and the “Change from Baseline … Median” value is −20. Besides, in data set [4] (Week 6/Endpoint), the “Change from Baseline … (SD)” value is −19.7 (19.3) and the “Change from Baseline … Median” value is recorded as −21. Further, in data set [5], the “AKATHISIA, %” value came to 3%; the “BALANCE DISORDER, %” value is given as 1 (<1%); the “DIZZINESS, %” value was determined as 5%; the “DYSARTHRIA, %” value is 1 (<1%). Further, in data set [5], the “DYSKINESIA, %” value is listed as 1 (<1%); the “EXTRAPYRAMIDAL DISORDER, %” value worked out at 1%; the “HEADACHE, %” value is on record as 12%; the “HYPOKINESIA, %” value was 1 (<1%). Besides, in data set [5], the “Hypoaesthesia, %” value is on record as 1 (<1%)); the “MUSCULOSKELETAL STIFFNESS, %” value is 1 (<1%); the “NECK PAIN, %” value turned out to be 1%; the “NERVOUS SYSTEM DISORDERS, %” value is recorded as 37%. In data set [5], the “PAIN IN EXTREMITY, %” value was determined as 2%; the “PARAESTHESIA, %” value was 1 (<1%); the “RESTLESS LEGS SYNDROME, %” value is 1 (<1%); the “SEDATION, %” value worked out at 8%. For the same compound, in data set [5], the “SOMNOLENCE, %” value was found to be 9%; the “SPEECH DISORDER, %” value is given as 1 (<1%); the “TREMOR, %” value was 3%.
